# Test results: patent US6355799B1, “Substituted benzene compounds, process for their preparation, and herbicidal and defoliant compositions containing them” (ISK Americas Incorporated, priority 1997, dated 2002)
# Key:
# Assay type in all cases: in vivo
# [1] = system: upland rice (Oryza sp., var. Tebonnet, RICE); experiment: Post-emerge test, crop safety; settings: post-emerge, 14 days after application, rating scale 0-100
# Summary of the method: (§1)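 Each test used a mechanized track sprayer delivering 187 l/ha of acetone solution at 15–1000 g ai/ha. Post-emerge foliage at 2–3 leaves was treated with added 0.25% v/v non-ionic surfactant and bottom-watered only. Injury was assessed on day 14, where 100 means total kill.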
# [2] = system: field corn (Zea mays L., var. Dekalb 535, CORN); experiment: Post-emerge test, crop safety; settings: post-emerge, 14 days after application, rating scale 0-100
# Summary of the method: as §1
# [3] = system: sicklepod (Cassia obtusifolia, CASOB); experiment: Post-emerge test, greenhouse herbicide activity screening; settings: post-emerge, 14 days after application, rating scale 0-100
# Text: (§2) A standard greenhouse herbicide activity screening system was used to evaluate the herbicidal efficacy and crop safety of these test compounds. Seven broadleaf weed species including redroot pigweed (Amaranthus retroflexus, AMARE, velvetleaf (Abutilon theophrasti, ABUTH), sicklepod (Cassia obtusifolia, CASOB), ivyleaf morningglory (Ipomoea hederacea, IPOHE), lambsquarters (Chenopodium album, CHEAL), common ragweed (Ambrosia artemisizfolia L., AMBEL), and cocklebur (Xanthium strumarium, XANST) were used as test species. Four grass weed species including green foxtail (Setaria viridis, SETVI), barnyardgrass (Echinochloa crus-galli, ECHCG), johnsongrass (Sorghum halepense, SORHA), and large crabgrass (Digitaria sanguinalis, DIGSA) were also used. In addition, three crop species, field corn (Zea mays L., var. Dekalb 535, CORN), soybean (Glycine max L., var. Pella 86, SOY), and is upland rice (Oryza sp., var. Tebonnet, RICE) were included.
# (§3) All plants were grown in 10 cm square plastic pots which were filled with a sandy loam soil mix. For pre-emerge tests, seeds were planted one day prior to application of the test compounds. For post-emerge tests, seeds were planted 8-21 days prior to the test to allow emergence and good foliage development prior to application of the test substances. At the time of the post-emerge application, plants of all species were usually at the 2-3 leaf stage of development.
# (§4) All test compounds Were dissolved in acetone and applied to the test units in a volume of 187 l /ha. Test materials were applied at rates ranging from 15 g ai/ha to 1000 g ai/ha using a track sprayer equipped with a TJ8001E even flow flat fan spray nozzle. Plants were arranged on a shelf so that the top of the canopy (post-emerge) or top of the soil surface (pre-emerge) was 40-45 cm below the nozzle. Pressurized air was used to force the test solution through the nozzle as it was mechanically advanced (via electrically driven chain drive) over the top of all test plants/pots. This application simulates a typical commercial field herbicide application.
# (§5) In the post-emerge test, a commercial non-ionic surfactant was also included (0.25% v/v) to enhance wetting of the leaf surfaces of target plants. Immediately after application, test units of the pre-emerge applications were watered at the soil surface to incorporate the test materials. Subsequently, these test units were bottom-watered. Post-emerge test units were always bottom-watered.
# (§6) At 14 days after application of the test materials, phytotoxicity ratings were recorded. A rating scale of 0-100 was used as previously described in Research Methods in Weed Science, 2nd edition, B. Truelove, Ed., Southern Weed Science Society, Auburn University, Auburn, Ala. 1977. Briefly, “0” corresponds to no damage and “100” corresponds to complete death of all plants in the test unit. This scale was used both to determine efficacy against weed species and damage to crop species. Herbicide activity data for various compounds of this invention, which are shown by compound No. in Tables 1-8, are shown in Tables 11 and 12.
# [4] = system: ivyleaf morningglory (Ipomoea hederacea, IPOHE); experiment: as above; settings: post-emerge, 14 days after application, rating scale 0-100
# Text: as §2, §3, §4, §5, §6
# [5] = system: redroot pigweed (Amaranthus retroflexus, AMARE); experiment: as above; settings: post-emerge, 14 days after application
# Text: as §2, §3, §4, §5, §6
# [6] = system: velvetleaf (Abutilon theophrasti, ABUTH); experiment: as above; settings: post-emerge, 14 days after application, rating scale 0-100
# Text: as §2, §3, §4, §5, §6
# [7] = system: lambsquarters (Chenopodium album, CHEAL); experiment: as above; settings: post-emerge, 14 days after application, rating scale 0-100
# Text: as §2, §3, §4, §5, §6
# [8] = system: barnyardgrass (Echinochloa crus-galli, ECHCG); experiment: as above; settings: post-emerge, 14 days after application, rating scale 0-100
# Text: as §2, §3, §4, §5, §6
# [9] = system: large crabgrass (Digitaria sanguinalis, DIGSA); experiment: as above; settings: post-emerge, 14 days after application, rating scale 0-100
# Text: as §2, §3, §4, §5, §6
# [10] = system: green foxtail (Setaria viridis, SETVI); experiment: as above; settings: post-emerge, 14 days after application, rating scale 0-100
# Text: as §2, §3, §4, §5, §6
# [11] = system: upland rice (Oryza sp., var. Tebonnet, RICE); experiment: Pre-emerge test, crop safety; settings: crop damage rating 0-100, 14 days after application
# Summary of the method: (§7)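 Fourteen days after spraying, crop and weed injury was graded visually from 0, no effect, to 100, every plant dead. Test substances were dissolved in acetone and applied at 15–1000 g ai/ha with a flat-fan nozzle. Application was either pre-emergence, one day after sowing, or post-emergence at the 2–3 leaf stage.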
# [12] = system: field corn (Zea mays L., var. Dekalb 535, CORN); experiment: Pre-emerge test, crop safety; settings: crop damage rating 0-100, 14 days after application
# Summary of the method: as §7
# [13] = system: sicklepod (Cassia obtusifolia, CASOB); experiment: Pre-emerge test, greenhouse herbicide activity screening; settings: phytotoxicity rating 0-100, 14 days after application
# Text: as §2, §3, §4, §5, §6
# [14] = system: ivyleaf morningglory (Ipomoea hederacea, IPOHE); experiment: as above; settings: phytotoxicity rating 0-100, 14 days after application
# Text: as §2, §3, §4, §5, §6
# [15] = system: velvetleaf (Abutilon theophrasti, ABUTH); experiment: as above; settings: phytotoxicity rating 0-100, 14 days after application
# Text: as §2, §3, §4, §5, §6
# [16] = system: lambsquarters (Chenopodium album, CHEAL); experiment: as above; settings: phytotoxicity rating 0-100, 14 days after application
# Text: as §2, §3, §4, §5, §6
# [17] = system: barnyardgrass (Echinochloa crus-galli, ECHCG); experiment: as above; settings: phytotoxicity rating 0-100, 14 days after application
# Text: as §2, §3, §4, §5, §6
# [18] = system: large crabgrass (Digitaria sanguinalis, DIGSA); experiment: as above; settings: phytotoxicity rating 0-100, 14 days after application
# Text: as §2, §3, §4, §5, §6
# [19] = system: green foxtail (Setaria viridis, SETVI); experiment: as above; settings: phytotoxicity rating 0-100, 14 days after application
# Text: as §2, §3, §4, §5, §6
# [20] = system: redroot pigweed (Amaranthus retroflexus, AMARE); experiment: as above; settings: phytotoxicity rating 0-100, 14 days after application
# Summary of the method: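 Rating: 0–100 visual injury, 14 DAA. Application: acetone, 187 l/ha, 15–1000 g ai/ha, flat-fan track sprayer with nozzle 40–45 cm above soil or canopy. Post-emerge runs used 0.25% v/v surfactant on 2–3 leaf plants.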
structure (smiles),measurement,setting,value
COc1c(Cl)cc(F)c(-n2c(=O)cc(C(F)(F)F)n(C)c2=O)c1NC(=O)OCc1ccc2c(c1)OCO2 [4-41],phytotoxicity rating RICE (crop damage),[1]; 63 g ai/ha,50
same,phytotoxicity rating RICE (crop damage),[1]; 250 g ai/ha,85
same,phytotoxicity rating CORN (crop damage),[2]; 63 g ai/ha,75
same,phytotoxicity rating CORN (crop damage),[2]; 250 g ai/ha,90
same,phytotoxicity rating CASOB,[3]; 63 g ai/ha,100
same,phytotoxicity rating CASOB,[3]; 250 g ai/ha,100
same,phytotoxicity rating IPOHE,[4]; 63 g ai/ha,100
same,phytotoxicity rating IPOHE,[4]; 250 g ai/ha,100
same,phytotoxicity rating AMARE,"[5]; 63 g ai/ha, rating scale 0-100 (0 no damage, 100 complete death)",100
same,phytotoxicity rating AMARE,"[5]; 250 g ai/ha, rating scale 0-100",100
same,phytotoxicity rating ABUTH,[6]; 63 g ai/ha,100
same,phytotoxicity rating ABUTH,[6]; 250 g ai/ha,100
same,phytotoxicity rating CHEAL,[7]; 63 g ai/ha,100
same,phytotoxicity rating CHEAL,[7]; 250 g ai/ha,100
same,phytotoxicity rating ECHCG,[8]; 63 g ai/ha,80
same,phytotoxicity rating ECHCG,[8]; 250 g ai/ha,90
same,phytotoxicity rating DIGSA,[9]; 63 g ai/ha,90
same,phytotoxicity rating DIGSA,[9]; 250 g ai/ha,100
same,phytotoxicity rating SETVI,[10]; 63 g ai/ha,95
same,phytotoxicity rating SETVI,[10]; 250 g ai/ha,95
same,Pre-emerge Herbicidal Activity RICE,[11]; 63 g ai/ha,40
same,Pre-emerge Herbicidal Activity RICE,[11]; 250 g ai/ha,80
same,Pre-emerge Herbicidal Activity CORN,[12]; 63 g ai/ha,15
same,Pre-emerge Herbicidal Activity CORN,[12]; 250 g ai/ha,65
same,Pre-emerge Herbicidal Activity CASOB,[13]; 63 g ai/ha,100
same,Pre-emerge Herbicidal Activity CASOB,[13]; 250 g ai/ha,100
same,Pre-emerge Herbicidal Activity IPOHE,[14]; 63 g ai/ha,100
same,Pre-emerge Herbicidal Activity IPOHE,[14]; 250 g ai/ha,100
same,Pre-emerge Herbicidal Activity ABUTH,[15]; 63 g ai/ha,100
same,Pre-emerge Herbicidal Activity ABUTH,[15]; 250 g ai/ha,100
same,Pre-emerge Herbicidal Activity CHEAL,[16]; 63 g ai/ha,100
same,Pre-emerge Herbicidal Activity CHEAL,[16]; 250 g ai/ha,100
same,Pre-emerge Herbicidal Activity ECHCG,[17]; 63 g ai/ha,80
same,Pre-emerge Herbicidal Activity ECHCG,[17]; 250 g ai/ha,90
same,Pre-emerge Herbicidal Activity DIGSA,[18]; 63 g ai/ha,100
same,Pre-emerge Herbicidal Activity DIGSA,[18]; 250 g ai/ha,100
same,Pre-emerge Herbicidal Activity SETVI,[19]; 63 g ai/ha,100
same,Pre-emerge Herbicidal Activity SETVI,[19]; 250 g ai/ha,100
same,Pre-emerge Herbicidal Activity AMARE,[20]; 63 g ai/ha,100
same,Pre-emerge Herbicidal Activity AMARE,[20]; 250 g ai/ha,100
